Measured values reported in ChEMBL document CHEMBL1138013, “Parallel methods for the preparation and SAR exploration of N-ethyl-4-[(8-alkyl-8-aza-bicyclo[3.2.1]oct-3-ylidene)-aryl-methyl]-benzamides, powerful mu and delta opioid agonists” (Bioorg Med Chem Lett, 2004).
pKi: −log10 of the molar value.

Key:
Mu-type opioid receptor = Mu-type opioid receptor (Mus musculus, UniProt P42866); experiment: Binding affinity against mu opioid receptor […]
[1] = Binding affinity against delta opioid receptor […]; set-up: species or system Mus musculus
[2] = biological target: Mu-type opioid receptor (Mus musculus) (UniProt P42866); experiment: Ratio of binding affinity against mu to that of delta opioid receptor
Mu-type opioid receptor (Mus musculus), sequence (P42866 whole entry): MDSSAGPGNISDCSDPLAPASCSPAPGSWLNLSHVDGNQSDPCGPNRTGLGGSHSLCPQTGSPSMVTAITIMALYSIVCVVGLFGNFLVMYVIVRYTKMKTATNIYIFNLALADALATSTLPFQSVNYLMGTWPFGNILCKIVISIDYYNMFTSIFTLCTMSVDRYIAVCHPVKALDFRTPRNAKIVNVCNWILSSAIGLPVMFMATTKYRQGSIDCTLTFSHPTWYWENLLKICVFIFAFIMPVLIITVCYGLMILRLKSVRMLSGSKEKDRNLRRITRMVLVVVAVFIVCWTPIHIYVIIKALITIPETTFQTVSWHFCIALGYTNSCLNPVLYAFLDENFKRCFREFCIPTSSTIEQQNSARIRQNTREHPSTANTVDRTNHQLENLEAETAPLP

Mu-type opioid receptor, sequence (P42866 whole entry): as above

Compound | pKi (Mu-type opioid receptor) | pKi [1] | Ratio [2]
CCNC(=O)c1ccc(/C(Br)=C2/C[C@H]3CC[C@@H](C2)N3Cc2ccoc2)cc1 | 7.41 | 7.54 | 
CCNC(=O)c1ccc(C(=C2CC3CCC(C2)N3Cc2ccoc2)c2c(C)noc2C)cc1 | 8.74 | 8.92 | 1.5
CCNC(=O)c1ccc(/C(=C2/C[C@H]3CC[C@@H](C2)N3Cc2ccsc2)c2ccc(CO)cc2)cc1 | 7.10 | 7.77 | 
CCNC(=O)c1ccc(C(=C2CC3CCC(C2)N3Cc2ccoc2)c2cccc(CO)c2)cc1 | 9.09 | 9.82 | 5.4
CCNC(=O)c1ccc(C(C#N)=C2CC3CCC(C2)N3Cc2ccoc2)cc1 | 9.00 | 9.52 | 3.3
CCNC(=O)c1ccc(/C(=C2/C[C@H]3CC[C@@H](C2)N3Cc2ccccn2)c2ccc(C(=O)N(C)C)cc2)cc1 | 7.00 | 9.30 | 
CCNC(=O)c1ccc(C(=C2CC3CCC(C2)N3Cc2ccoc2)c2ccc(F)cc2)cc1 | 8.77 | 8.85 | 1.2
CCNC(=O)c1ccc(C(=C2CC3CCC(C2)N3Cc2ccoc2)c2cc(C(=O)O)cc([N+](=O)[O-])c2)cc1 | 7.92 | 9.03 | 13
CCNC(=O)c1ccc(C(=C2CC3CCC(C2)N3Cc2ccoc2)c2cncnc2)cc1 | 8.16 | 8.64 | 3
C=C(C)CCN1[C@@H]2CC[C@H]1C/C(=C(/c1ccc(C(=O)NCC)cc1)c1cccc(C(C)=O)c1)C2 | 8.55 | 8.82 | 
CCNC(=O)c1ccc(C(=C2CC3CCC(C2)N3Cc2cccnc2)c2ccccc2)cc1 |  | 7.15 | 0.87
CCNC(=O)c1ccc(C(=C2CC3CCC(C2)N3Cc2ccoc2)c2cccc(-c3nn[nH]n3)c2)cc1 |  | 9.14 | 2100
C=C(C)CCN1[C@@H]2CC[C@H]1C/C(=C(\c1ccc(C(=O)NCC)cc1)c1cccc(C(C)=O)c1)C2 | 6.17 | 7.55 | 
CCNC(=O)c1ccc(C(=C2CC3CCC(C2)N3Cc2ccoc2)c2cccc(C#N)c2)cc1 | 8.48 | 9.22 | 5.5
CCNC(=O)c1ccc(C(=C2CC3CCC(C2)N3Cc2ccoc2)c2cccc(C(=O)O)c2)cc1 |  | 8.46 | 8
C=C(C)CCN1[C@@H]2CC[C@H]1C/C(=C(\c1ccc(C(=O)NCC)cc1)c1cccc(C(=O)O)c1)C2 | 7.62 | 7.52 | 
CCNC(=O)c1ccc(C(=C2CC3CCC(C2)N3Cc2ccoc2)c2cc(N)cc(C(=O)O)c2)cc1 | 5.04 | 7.25 | 160
CCNC(=O)c1ccc(/C(=C2\C[C@H]3CC[C@@H](C2)N3Cc2ccsc2)c2cccc(-c3nn[nH]n3)c2)cc1 | 7.92 | 9.15 | 
CCNC(=O)c1ccc(C(=C2CC3CCC(C2)N3Cc2ccoc2)c2ccc(C(=O)O)cc2)cc1 | 7.92 | 8.28 | 2.3
CCNC(=O)c1ccc(C(=C2CC3CCC(C2)N3Cc2ccsc2)c2ccc3c(c2)OCO3)cc1 | 8.89 | 8.51 | 0.42
CCNC(=O)c1ccc(C(=C2CC3CCC(C2)N3Cc2ccoc2)c2ccc(C(=O)N(C)C)cc2)cc1 | 8.17 | 8.34 | 1.5

Compound | pKi (Mu-type opioid receptor) | pKi [1] | Ratio [2]
CCNC(=O)c1ccc(C(=C2CC3CCC(C2)N3Cc2ccoc2)c2ccccn2)cc1 | 7.35 | 8.00 | 4.5
CCNC(=O)c1ccc(C=C2CC3CCC(C2)N3Cc2ccoc2)cc1 | 6.96 | 7.03 | 1.2
CCNC(=O)c1ccc(/C(=C2/C[C@H]3CC[C@@H](C2)N3Cc2ccsc2)c2cccc(-c3nn[nH]n3)c2)cc1 | 5.51 | 7.51 | 
CCNC(=O)c1ccc(/C(=C2\C[C@H]3CC[C@@H](C2)N3Cc2ccsc2)c2ccc(CO)cc2)cc1 | 7.77 | 8.70 | 
CCNC(=O)c1ccc(C(=C2CC3CCC(C2)N3Cc2ccoc2)c2ccc(C(N)=O)cc2)cc1 | 8.89 | 8.41 | 0.33
CCNC(=O)c1ccc(C(=C2CC3CCC(C2)N3Cc2ccoc2)c2ccc(C(C)=O)cc2)cc1 | 8.77 | 9.48 | 5.2
CCNC(=O)c1ccc(C(=C2CC3CCC(C2)N3Cc2ccsc2)c2cnccn2)cc1 | 8.60 | 7.77 | 0.15
CCNC(=O)c1ccc(C(=C2CC3CCC(C2)N3Cc2cccs2)c2ccccn2)cc1 | 8.22 | 8.42 | 1.6
C=C(C)CCN1C2CCC1CC(=C(c1ccc(C(=O)NCC)cc1)c1cccc(C(C)=O)c1)C2 | 8.72 | 8.74 | 1.1
CCNC(=O)c1ccc(C(=C2CC3CCC(C2)N3CCc2ccccc2)c2ccccc2)cc1 | 7.14 | 9.62 | 300
CCNC(=O)c1ccc(C(=C2CC3CCC(C2)N3Cc2ccoc2)c2cccc(CCC(=O)O)c2)cc1 | 8.52 | 9.11 | 3.9
CCNC(=O)c1ccc(C(=C2CC3CCC(C2)N3Cc2ccoc2)c2cnc3ccccc3c2)cc1 | 8.40 | 7.70 | 0.2
CCNC(=O)c1ccc(C(=C2CC3CCC(C2)N3Cc2ccoc2)c2cccc(F)c2)cc1 | 8.43 | 9.40 | 9.3
CCNC(=O)c1ccc(/C(C#N)=C2/C[C@H]3CC[C@@H](C2)N3Cc2ccoc2)cc1 | 8.64 | 8.96 | 
C=C(C)CCN1[C@@H]2CC[C@H]1C/C(=C(/c1ccc(C(=O)NCC)cc1)c1cccc(C(=O)O)c1)C2 | 7.24 | 8.66 | 
CCNC(=O)c1ccc(C(Br)=C2CC3CCC(C2)N3Cc2ccoc2)cc1 | 8.72 | 9.10 | 2.4
CCNC(=O)c1ccc(/C(C#N)=C2\C[C@H]3CC[C@@H](C2)N3Cc2ccoc2)cc1 | 8.59 | 9.05 | 
CCNC(=O)c1ccc(C(=C2CC3CCC(C2)N3Cc2ccoc2)c2nnn[nH]2)cc1 | 7.08 | 6.68 | 0.4
CCNC(=O)c1ccc(/C(=C2\C[C@H]3CC[C@@H](C2)N3Cc2ccccn2)c2ccc(C(=O)N(C)C)cc2)cc1 | 7.85 | 9.70 | 
CCNC(=O)c1ccc(C(=C2CC3CCC(C2)N3Cc2ccoc2)c2ccc([N+](=O)[O-])cc2)cc1 | 8.82 | 9.64 | 6.5
CCNC(=O)c1ccc(C(=C2CC3CCC(C2)N3Cc2ccoc2)c2c(C)cccc2C)cc1 | 8.85 | 8.89 | 1.1

Compound | pKi (Mu-type opioid receptor) | pKi [1] | Ratio [2]
C=C(C)CCN1C2CCC1CC(=C(c1ccc(C(=O)NCC)cc1)c1ccco1)C2 | 8.20 | 8.25 | 1.1
CCNC(=O)c1ccc(C(=C2CC3CCC(C2)N3Cc2ccoc2)c2ccncc2)cc1 | 8.66 | 8.22 | 0.37
CCNC(=O)c1ccc(/C(Br)=C2\C[C@H]3CC[C@@H](C2)N3Cc2ccoc2)cc1 | 9.70 | 9.52 | 
CCN(CC)C(=O)c1ccc(C(=C2CC3CCC(C2)N3CCc2ccccc2)c2ccccc2)cc1 | 9.59 | 7.33 | 0.0055
CCNC(=O)c1ccc(C(=C2CC3CCC(C2)N3Cc2ccoc2)c2cccc(CN)c2)cc1 | 7.15 | 7.70 | 3.6
CCNC(=O)c1ccc(C(=C2CC3CCC(C2)N3Cc2ccoc2)c2ccc(CO)cc2)cc1 | 7.72 | 8.57 | 7
CCNC(=O)c1ccc(C(=C2CC3CCC(C2)N3Cc2cnc[nH]2)c2cccc(NC(C)=O)c2)cc1 | 8.03 |  | 
CCNC(=O)c1ccc(C(=C2CC3CCC(C2)N3Cc2ccoc2)c2cccnc2)cc1 | 8.92 | 9.40 | 3
CCNC(=O)c1ccc(C(=C2CC3CCC(C2)N3Cc2ccoc2)c2ccc(NC(C)=O)cc2)cc1 | 9.10 | 9.47 | 2.4
CCNC(=O)c1ccc(C(=C2CC3CCC(C2)N3Cc2ccoc2)c2ccc(S(C)(=O)=O)cc2)cc1 | 8.51 | 8.70 | 1.6
CCNC(=O)c1ccc(C(=C2CC3CCC(C2)N3Cc2ccoc2)c2ccc(S(N)(=O)=O)cc2)cc1 | 7.30 | 7.80 | 3.1
CCNC(=O)c1ccc(C(=C2CC3CCC(C2)N3Cc2cccc(C(=O)O)c2)c2ccccc2)cc1 | 6.32 | 6.55 | 1.7
CCNC(=O)c1ccc(C(=C2CC3CCC(C2)N3Cc2ccoc2)c2ccc(O)c(OC)c2)cc1 | 9.23 | 9.52 | 2
CCNC(=O)c1ccc(C(=C2CC3CCC(C2)N3Cc2ccoc2)c2ccc3c(c2)OCO3)cc1 | 8.96 |  | 1
CCNC(=O)c1ccc(C(=C2CC3CCC(C2)N3Cc2c[nH]cn2)c2cccc(NC(C)=O)c2)cc1 |  | 7.72 | 0.5
CCNC(=O)c1ccc(C(=C2CC3CCC(C2)N3Cc2ccoc2)c2cccc(N)c2)cc1 | 8.59 | 8.70 | 1.3
CCNC(=O)c1ccc(C(=C2CC3CCC(C2)N3Cc2ccoc2)c2cccc(NC(C)=O)c2)cc1 | 8.92 | 9.30 | 2.4
CCNC(=O)c1ccc(C(=C2CC3CCC(C2)N3Cc2ccoc2)c2ccc(N(C)C)cc2)cc1 | 7.29 | 8.06 | 5.9
CCNC(=O)c1ccc(C(=C2CC3CCC(C2)N3Cc2ccoc2)c2cnccn2)cc1 | 8.00 | 8.47 | 2.9
CCNC(=O)c1ccc(C(=C2CC3CCC(C2)N3Cc2ccoc2)c2cccc(C(C)=O)c2)cc1 | 8.89 | 9.40 | 3.3
CCNC(=O)c1ccc(C(=C2CC3CCC(C2)N3Cc2ccccn2)c2cccc(NC(C)=O)c2)cc1 | 8.44 | 7.55 | 0.13
